From ChEMBL document CHEMBL1123597, “Synthesis and structure-activity relationships of pyrazolo[4,3-d]pyrimidin-7-ones as adenosine receptor antagonists” (J Med Chem, 1987)

These compounds were tested against T1, Adenosine receptor A1 (Rattus norvegicus) (UniProt P25099). Conditions: Brain; Membrane.
T1 sequence (whole entry): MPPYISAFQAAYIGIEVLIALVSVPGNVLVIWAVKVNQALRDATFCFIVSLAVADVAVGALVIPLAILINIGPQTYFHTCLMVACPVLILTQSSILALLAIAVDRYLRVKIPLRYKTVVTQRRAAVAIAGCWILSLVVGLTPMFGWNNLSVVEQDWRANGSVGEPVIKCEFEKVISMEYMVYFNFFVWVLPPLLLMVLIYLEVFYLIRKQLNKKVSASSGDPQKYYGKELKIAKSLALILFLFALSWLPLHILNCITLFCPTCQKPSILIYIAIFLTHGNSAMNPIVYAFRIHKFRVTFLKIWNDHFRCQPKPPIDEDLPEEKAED
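Throughout, for PCY: radioligand displacement of N6-[3H]cyclohexyladenosine binding in rat brain membranes, PCY computed as the log of 100000 divided by IC50.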
Description: Binding affinity against adenosine A1 receptor in rat brain membrane preparations using N6-[3H]cyclohexyladenosine as radioligand, PCY = log (100000/IC50).

Point of comparison: `COc1ccc(-c2nc(O)c3c(n2)c(C)nn3C)cc1OC`, PCY 1.7. Against it:
- Cc1nn(C)c2c(O)nc(-c3cccc([N+](=O)[O-])c3)nc12 — higher, 1.9
- COc1ccc(-c2nc(O)c3c(n2)c(C)nn3C)c(OC)c1 — lower, 1.3
- Cc1nn(C)c2c(O)ncnc12 — lower, 0.7
- COc1cccc(-c2nc(O)c3c(n2)c(C)nn3C)c1 — higher, 1.8
- COc1cccc(-c2nc3c(=O)n(C)c(=O)n(C)c3[nH]2)c1 — higher, 3.7
- Cc1nn(C)c2c(O)nc(-c3ccc(S(=O)(=O)O)cc3)nc12 — lower, 1.6
- Cc1nn(C)c2c(O)nc(-c3ccncc3)nc12 — higher, 2
- Cc1ccc(-c2nc(O)c3c(n2)c(C)nn3C)cc1 — higher, 2.4
- COc1ccccc1-c1nc2c(=O)n(C)c(=O)n(C)c2[nH]1 — higher, 2.5
- Cn1c(=O)c2nc(-c3ccc(Cl)cc3N)[nH]c2n(C)c1=O — higher, 5.4
- Cc1nn(C)c2c(O)nc(-c3ccccc3N)nc12 — higher, 2.6
- Cn1c(=O)c2nc(Cc3ccccc3)[nH]c2n(C)c1=O — higher, 1.8
- Cn1c(=O)c2nc(-c3ccc(N)cc3)[nH]c2n(C)c1=O — higher, 4.7
- Cc1nn(C)c2c(O)nc(-c3ccc(N)cc3)nc12 — higher, 2.4
- CCn1c(=O)n(C)c(=O)c2[nH]c(-c3ccccc3)nc21 — higher, 4.5
- Cc1nn(C)c2c(O)nc(-c3ccc(Cl)c(Cl)c3)nc12 — higher, 2
- Cc1nn(C)c2c(O)nc(-c3ccccc3)nc12 — higher, 2
- Cn1c(=O)c2nc(-c3cccnc3)[nH]c2n(C)c1=O — higher, 3.3
- Cc1nn(C)c2c(O)nc(-c3cccc(N)c3)nc12 — higher, 1.8
- CCn1nc(C)c2nc(-c3ccccc3)nc(O)c21 — higher, 2.2
- Cc1nn(C)c2c(O)nc(Cc3ccccc3)nc12 — higher, 1.9
- Cc1nn(C)c2c(O)nc(-c3ccc(Cl)cc3N)nc12 — higher, 2.5
- Cc1nn(C)c2c(O)nc(-c3cccnc3)nc12 — lower, 1.5
- COc1cc(OC)cc(-c2nc(O)c3c(n2)c(C)nn3C)c1 — lower, 1.2
- Cn1c(=O)c2nc(-c3ccc(Cl)c(Cl)c3)[nH]c2n(C)c1=O — higher, 4.3
- COc1ccccc1-c1nc(O)c2c(n1)c(C)nn2C — lower, 1
- Cc1nn(C)c2c(O)nc(-c3ccc([N+](=O)[O-])cc3)nc12 — higher, 2.1
- Cc1nn(C)c2c(O)nc(-c3ccc(Cl)cc3)nc12 — higher, 2.4
- Cn1c(=O)c2nc(-c3ccc(S(=O)(=O)O)cc3)[nH]c2n(C)c1=O — higher, 3.6
- Cn1c(=O)c2nc(-c3ccccc3N)[nH]c2n(C)c1=O — higher, 4.3

Each compound was assayed against T2, Adenosine receptor A1 (Rattus norvegicus, UniProt P25099) (assay: Binding affinity against adenosine A1 receptor in rat brain membrane preparations using N6-[3H]cyclohexyladenosine as a radioligand). Conditions: not given.
T2 sequence (P25099 whole entry): T1 sequence (whole entry)
Type: cell membranes

Point of comparison: `COc1cc(OC)cc(-c2nc(O)c3c(n2)c(C)nn3C)c1`, IC50 7060 nM. Against it:
- Cc1nn(C)c2c(=O)[nH]c(-c3ccc(N)cc3)nc12 — 19-fold lower, 380 nM
- Cn1c(=O)c2[nH]c(-c3ccc([N+](=O)[O-])cc3)nc2n(C)c1=O — 880-fold lower, 8 nM
- CCn1nc(C)c2nc(Cc3ccccc3)nc(O)c21 — 8.6-fold lower, 820 nM
- Cc1nn(C)c2c(=O)[nH]c(-c3ccc(S(=O)(=O)NCCN(C)C)cc3)nc12 — 100-fold lower, 68 nM
- Cn1c(=O)c2[nH]c(-c3ccc(N)cc3)nc2n(C)c1=O — 3900-fold lower, 1.8 nM
- Cn1c(=O)c2[nH]c(-c3ccc(Cl)cc3N)nc2n(C)c1=O — 18000-fold lower, 0.4 nM
- CC(Sc1nc(SC(C)C(N)=O)c2cnn(-c3ccccc3)c2n1)C(N)=O (centres undefined) — 6.9-fold lower, 1030 nM
- Cn1c(=O)c2[nH]c(-c3cccc(N)c3)nc2n(C)c1=O — 710-fold lower, 10 nM
- Cc1nn(C)c2c(O)nc(-c3ccc(S(=O)(=O)O)cc3)nc12 — 3.1-fold lower, 2300 nM
- Cc1nn(C)c2c(=O)[nH]c(Cc3ccccc3)nc12 — 5.4-fold lower, 1310 nM
- COc1ccc(-c2nc3c([nH]2)c(=O)n(C)c(=O)n3C)c(OC)c1 — 35-fold lower, 200 nM
- Cc1nn(C)c2c(O)nc(-c3ccccc3N)nc12 — 31-fold lower, 230 nM
- CCn1nc(C)c2nc(-c3ccncc3)[nH]c(=O)c21 — 28-fold lower, 250 nM
- CCn1c(=O)n(C)c(=O)c2[nH]c(-c3ccccc3)nc21 — 2400-fold lower, 3 nM
- COc1ccccc1-c1nc2c([nH]1)c(=O)n(C)c(=O)n2C — 20-fold lower, 350 nM
- COc1cc(OC)cc(-c2nc3c([nH]2)c(=O)n(C)c(=O)n3C)c1 — 14-fold lower, 500 nM
- Cn1c(=O)c2nc(-c3cccc([N+](=O)[O-])c3)[nH]c2n(C)c1=O — 140-fold lower, 50 nM
- Cc1ccc(-c2nc3c(C)nn(C)c3c(=O)[nH]2)cc1 — 18-fold lower, 400 nM
- Cn1c(=O)c2[nH]c(-c3ccc(Cl)cc3)nc2n(C)c1=O — 8800-fold lower, 0.8 nM
- Cn1c(=O)c2nc(-c3ccc(Cl)c(Cl)c3)[nH]c2n(C)c1=O — 1400-fold lower, 5 nM
- Cn1c(=O)c2[nH]c(-c3cccnc3)nc2n(C)c1=O — 140-fold lower, 50 nM
- Cc1ccc(-c2nc3c([nH]2)c(=O)n(C)c(=O)n3C)cc1 — 8800-fold lower, 0.8 nM
- Cc1nn(C)c2c(=O)[nH]c(-c3ccc(Cl)cc3N)nc12 — 23-fold lower, 310 nM
- Cc1nn(C)c2c(=O)[nH]cnc12 — 2.8-fold higher, 20100 nM
- COc1cccc(-c2nc3c(C)nn(C)c3c(=O)[nH]2)c1 — 4.8-fold lower, 1470 nM
- Cn1c(=O)c2nc(-c3ccccc3N)[nH]c2n(C)c1=O — 1300-fold lower, 5.5 nM
- Cn1c(=O)c2[nH]c(Cc3ccccc3)nc2n(C)c1=O — 4.7-fold lower, 1500 nM
